Experimental data reported in PMC9633773, “Discovering cell-active BCL6 inhibitors: effectively combining biochemical HTS with multiple biophysical techniques, X-ray crystallography and cell-based assays” (Scientific Reports, 2022).
Ends that are not written are not given here.

Experiments:
BCL6 BTB domain [1] = molecular target: T1, BCL6 BTB domain (Homo sapiens, UniProt P41182); assay: Fluorescence polarisation (FP) competition assay with BCOR-AF633 peptide; type: biochemical; conditions: for FP pIC50 Mean / IC50: repurchased hits; for IC50: up to 2 mM, n=1-6, read-out: FP IC50 Geometric Mean
T1 construct: the tag was removed by HRV-3C protease treatment, generating a simpler BCL6 5–129 product; Thioredoxin (N, cleaved yes); 6His (N, cleaved yes); made in house; host or cells: E. coli BL21-AI
Description: A modified BCOR peptide containing a C-terminal cysteine, labelled with Alexa Fluor (AF)633 C5 maleimide ([…]-Cys(AF633)-amide) was obtained from Cambridge Research Biochemical. For high throughput screening, the assay was miniaturized from 10 µL in Perkin Elmer 384-well black Proxi Plus plates to 4 µL in Labcyte 1536-well black low dead volume LP-0410 plates. Each complete reaction (a modified version from[9],[17]) contained 20 mM Hepes/NaOH pH 8.0, 150 mM NaCl, 0.5 mM tris(2-carboxyethyl)phosphine (TCEP), 0.05% (v/v) Tween 20, 10 nM BCOR-AF633 peptide, 3 µM BCL6 BTB and 1–2% (v/v) DMSO. At this protein concentration, we recorded a FP signal of 80 to 90 mP, corresponding to about 55% BCOR-AF633 bound to the BCL6 BTB domain. Compounds and control BCOR peptide were dispensed using an Echo550 acoustic dispenser (Beckman Coulter). Protein and peptide reagents were added using a Multidrop combi (Thermo Scientific) or a Tempest v2 (Formulatrix). After 2 h incubation at room temperature, plates were read on an Envision plate reader (Perkin Elmer) with excitation and emission wavelengths of 620 nm and 688 nm, respectively, or Pherastar FSX (BMG Labtech) with FP filters module 590-50/675-50/675-50. […] As a low signal control, we used either the maximal inhibition by BCOR in the HTS campaign, or the signal obtained from the probe in the absence of BCL6 for IC50 determination. IC50 values were calculated using a sigmoidal dose–response (variable slope) four- parameter equation. Beside the FP measurement, the total fluorescence intensity (TFI) was recorded to allow identification of interfering compounds (TFI > 110% control)[26].

BCL6 BTB [2] = molecular target: T2, BCL6 BTB (Homo sapiens, UniProt P41182); assay: Thermal shift assay (TSA); type: binding; conditions: measured at 200 and 400 µM compound; binder if ≥ 1 °C
T2 construct: the tag was removed by HRV-3C protease treatment, generating a simpler BCL6 5–129 product; Thioredoxin (N, cleaved yes); 6His (N, cleaved yes); made in house; host or cells: E. coli BL21-AI
Description: Thermal shift assays were performed in 4titude FrameStar (Part No. 4ti-0385) 384 well skirted PCR plates: each well contained 10 µL of sodium acetate pH 6 buffer, 100 mM NaCl, 0.5 mM TCEP, 10 µM BCL6 BTB and 20 × Sypro Orange dye (Life Technologies), with or without inhibitor compound (100–400 µM) at 4% (v/v) final DMSO concentration. Plates were heated on a Biorad CFX384 real time thermocycler with a temperature gradient from 10 to 95 °C with a 0.5 °C increment, 0.15 s/cycle. Data were processed using Vortex (Dotmatics): a shift of the BCL6 BTB melting temperature (ΔTm) of + 1 °C or more was classed as indicative of BCL6 compound binding.

BCL6 BTB domain [3] = molecular target: T1, BCL6 BTB domain; assay: Surface plasmon resonance (SPR); type: binding; conditions: immobilised BCL6 BTB, pH 6.0, 1:1 equilibrium model;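 note: Fail means no measurable KD from unsaturated curves poor sensorgrams or non-1:1 stoichiometry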
Description: All surface plasmon resonance (SPR) experiments were carried out on a Biacore T200 (Cytiva) and amine coupling chemistry was used to immobilise the protein on a research grade CM5 sensor chip. The running buffer consisted of 100 mM sodium acetate, 100 mM sodium chloride, and 1 mM TCEP at pH 6.0. The chip’s surface was activated for 10 min using a 1:1 mixture of 100 mM N-hydroxysuccinimide and 400 mM 1-ethyl-3-(3-dimethylaminopropyl)-carbodiimide. BCL6 BTB protein was injected for 20 min at a concentration of 100 µg/mL in a 10 mM sodium acetate buffer (pH 5.5). Finally, the surface was blocked via an injection of 1 M ethanolamine pH 8.5 for 7 min. The flow rate was maintained at 10 µL/min for all the above procedures and ~ 10,000 response units (RU) of BCL6 was immobilised on the chip. Flow cell one was left unmodified as the reference surface.
Following protein immobilisation, the running buffer was changed to 100 mM sodium acetate, 100 mM sodium chloride, 1 mM TCEP, 0.05% Tween20 (v/v), 5% DMSO at pH 6.0.
All compound handling was performed on an ECHO 550 acoustic liquid dispenser and compounds were added to 384-well polypropylene V-bottomed plates (Greiner), which became the sample plates for the SPR. […] The flow rate was 30 µL/min, the injection time for the samples was 60 s, and the dissociation time was 60 s. The surface was not regenerated between sample injections. KD values were calculated from the Langmuir plot under equilibrium conditions using the 1:1 binding model in the Biacore software version 2 (Cytiva).

BCL6 BTB [4] = molecular target: T2, BCL6 BTB; assay: 19F ligand-observed NMR TFA-WVIP-NH2 peptide displacement assay; type: binding; conditions: for 19F LO-NMR, % peptide displaced: 200 µM compound, 200 µM TFA-WVIP-NH2, 6 µM BCL6 BTB, mean ± SD, n=2, hit if ≥ 30%
Description: Each 180 µL ^19F-NMR peptide displacement assay contained 20 mM HEPES buffer pH 8, 100 mM NaCl, 0.5 mM TCEP, 10% D2O, 200 µM reporter TFA-WVIP-NH2, with or without 200 µM compound (4% D6-DMSO final) and 6 µM BCL6 BTB. Each 180 µL sample reaction was prepared in a 96-well plate and 170 µL transferred to a 3 mm NMR tube (Bruker, Part No. Z112272) using a Gilson liquid handler GX-281. NMR data were collected on a Bruker […] 500 MHz spectrometer equipped with a 5 mm BBFO probe. Data were acquired and processed using Bruker Topsin 2.1. The recovery of the reporter NMR signal upon addition of compound indicates competitive binding at the same site as the TFA-WVIP-NH2 tetrapeptide on the protein. We quantified the extent of recovery of NMR signal in % of reporter displacement[42]: \% displacement=Ireporter(+protein+compound)-Ireporter(+protein)/Ireporter(-protein)-Ireporter(+protein)X100\%

NMR kinetic solubility = type: physicochemical; conditions: 500 µM final compound concentration, 20 mM HEPES buffer pH 8, 2% or 5% DMSO
Description: Solubility measurements by quantitative ^1H-NMR or HPLC method were performed as described previously.

Trx-6His-BCL6 BTB = molecular target: T3, Trx-6His-BCL6 BTB (Homo sapiens, UniProt P41182); assay: TR-FRET assay, Trx-6His-BCL6 BTB / BCOR-A633 peptide; type: biochemical; conditions: 1 or 10 nM Trx-6His-BCL6 BTB; read-out: TR-FRET IC50
T3 construct: made in house; host or cells: E. coli BL21-AI
Description: Each 15 µL TR-FRET reaction in 384-well black Proxiplate (Perkin Elmer) contained 1 or 10 nM Trx-6His-BCL6 BTB, 300 nM BCOR-A633 and 0.5 or 1 nM anti-6His-Terbium cryptate (Perkin Elmer), in the FP assay buffer (25 mM Hepes pH 8, 100 mM NaCl, 0.05% (v/v) Tween20, 0.5 mM TCEP), supplemented with 0.05% (w/v) bovine serum albumin. Test compounds in DMSO or DMSO alone were added to the wells using and Echo 550 acoustic dispenser to give the appropriate test concentration in 0.7% v/v DMSO final. After a 2 h incubation at room temperature, the plates were read on an Envision plate reader or a Pherastar FSX plate reader with 337 nm laser excitation, a first emission filter at 665 nm and a second emission filter at 615 or 620 nm. Data were normalised and IC50 determined as described above for the FP assay.

Compound	FP pIC50 Mean (BCL6 BTB domain [1])	IC50 (BCL6 BTB domain [1]) [µM]	TSA Tm (thermal shift) (BCL6 BTB [2])	SPR KD (BCL6 BTB domain [3])	19F LO-NMR, % peptide displaced (BCL6 BTB [4]) [%]	Sol. (NMR kinetic solubility) (NMR kinetic solubility) [µM]	Kd (BCL6 BTB domain [3]) [µM]	IC50 (Trx-6His-BCL6 BTB) [µM]	FP % inhibition at top concentration (BCL6 BTB domain [1]; printed beside IC50 >980 µM, 34% inhibition at 1 mM in text) [%]	Displacement of BCL6-bound TFA-WVIP-NH2 peptide (recovery of fluorine signal) (BCL6 BTB [4]; Figure 3A, qualitative)	FP % inhibition (BCL6 BTB domain [1]; at 980 µM, n=4) [%]
Fc1ccc(C2CC(c3cccc4ccccc34)n3ncnc3N2)cc1 (centres unmarked) [Compound 3]	3.99	102	0.5-2 ºC	Fail	54 ± 1	64	–	–	–	–	–
Fc1ccc(C2CC(c3ccccc3Cl)Nc3ncnn32)cc1 (centres unmarked) [Compound 5]	3.71	194	0 ºC	–	–	< 30	–	–	–	–	–
COC(=O)C1=C(C)Nc2ncnn2C1c1ccc(C(=O)O)cc1 (centres unmarked) [Compound 6]	3.15	703	0.5-1 ºC	–	33.5 ± 1	538	659	–	–	–	–
CCCC1=C(C(=O)OCC)C(c2cccnc2)n2ncnc2N1 (centres unmarked) [Compound 7]	4.02	95.5	0.5-3 ºC	–	82.5 ± 5	476	168	–	–	–	–
CCC1=C(C(=O)OC)C(c2ccccc2F)n2ncnc2N1 (centres unmarked) [Compound 8]	3.66	219	0.5-2 ºC	Fail	–	70	–	–	–	–	–
Cc1cc(NCc2ccc3c(c2)OCO3)n2ncnc2n1 [Compound 9]	3.32	477	–	Fail	49.5 ± 9	96	–	–	–	–	–
Cn1c(=O)n(C)c2cc(Nc3cc(N4CCOCC4)ncn3)ccc21 [Compound 18]	–	> 980	0-0.5 ºC	–	–	55	–	–	34	–	–
COc1cccc(CN(C)c2nc3c(cnn3C(C)(C)C)c(=O)[nH]2)c1 [Compound 20]	3.18	666	0 ºC	–	–	< 30	–	–	–	–	–
EGLVATVKEAGRSIHEIPR [SMRT, reference compound]	–	–	–	–	–	–	–	–	–	able to displace	–
WVIP peptide: hybrid BCOR/SMRT tetrapeptide with an Ac-WVIP-NH2 sequence [reference compound]	–	–	–	–	–	–	–	–	–	–	16

More lines, in order of falling IC50 (BCL6 BTB domain [1]), values ahead:

FP pIC50 Mean (BCL6 BTB domain [1])	IC50 (BCL6 BTB domain [1]) [µM]	TSA Tm (thermal shift) (BCL6 BTB [2])	SPR KD (BCL6 BTB domain [3])	19F LO-NMR, % peptide displaced (BCL6 BTB [4]) [%]	Sol. (NMR kinetic solubility) (NMR kinetic solubility) [µM]	Kd (BCL6 BTB domain [3]) [µM]	IC50 (Trx-6His-BCL6 BTB) [µM]	FP % inhibition at top concentration (BCL6 BTB domain [1]; printed beside IC50 >980 µM, 34% inhibition at 1 mM in text) [%]	Displacement of BCL6-bound TFA-WVIP-NH2 peptide (recovery of fluorine signal) (BCL6 BTB [4]; Figure 3A, qualitative)	FP % inhibition (BCL6 BTB domain [1]; at 980 µM, n=4) [%]	Compound
3.45	353	0.5-1 ºC	–	23 ± 11	163	1190	–	–	–	–	CC(C)CCn1c(SCC(=O)Nc2ccccc2F)nc2nccnc2c1=O [Compound 22]
3.64	230	0-2.5 ºC	–	102 ± 1	313	672	–	–	–	–	N#Cc1c(C(F)(F)F)cc(-c2cccs2)nc1SC(C(=O)O)c1ccccc1 (centres unmarked) [Compound 13]
3.70	197	0-1 ºC	Fail	61 ± 4	71	–	–	–	–	–	Cc1ccccc1C1CC(c2ccccc2)Nc2ncnn21 (centres unmarked) [Compound 1]
3.74	183	1-2.5 ºC	–	78 ± 23	188	302	–	–	–	–	O=C(NCc1ccccn1)c1csc(Nc2ccccc2Cl)n1 [Compound 14]
3.83	150	–	–	70 ± 1	83	553	–	–	–	–	O=C(NCCCN1CCOCC1)c1csc(Nc2cccc3ccccc23)n1 [Compound 15]
4.15	70.2	–	–	100 ± 1	39	49	54	–	–	–	Cn1c(=O)n(C)c2cc(Nc3cc(SCc4ccccc4)ncn3)ccc21 [Compound 17]
